Measurements from publication PMC7862272, “Discovery of an ene-reductase for initiating flavone and flavonol catabolism in gut bacteria” (Nature Communications, 2021).

What was measured:
[1] = target: T1, FLR (flavone reductase) (Flavonifractor plautii, UniProt A0A096D7X8); test: X-ray crystal structure, soaked SeMet crystal; assay type: binding; conditions: FMN bound, dimer interface
T1 construct: gene HMPREF9460_03474; SeMet-labelled for crystals

[2] = target: T2, sgrIFR (Streptomyces griseus, UniProt B1W160); test: conversion by E. coli expressing the enzyme; assay type: cell-based; conditions: product dihydrodaidzein
T2 construct: gene SGR_2256; expressed in E. coli BL21 from pET28a, activity of the cell culture
T2 sequence (B1W160 1-332): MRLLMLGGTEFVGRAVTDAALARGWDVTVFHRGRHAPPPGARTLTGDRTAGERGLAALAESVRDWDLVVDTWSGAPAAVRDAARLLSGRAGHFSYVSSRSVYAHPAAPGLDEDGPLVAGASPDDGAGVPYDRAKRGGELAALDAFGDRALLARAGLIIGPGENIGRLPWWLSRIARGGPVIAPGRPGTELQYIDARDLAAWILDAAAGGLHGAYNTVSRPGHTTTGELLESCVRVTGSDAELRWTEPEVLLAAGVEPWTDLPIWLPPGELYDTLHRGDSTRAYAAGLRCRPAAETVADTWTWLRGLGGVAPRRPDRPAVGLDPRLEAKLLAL

[3] = target: T1, FLR (flavone reductase); test: X-ray crystal structure (Se-SAD); assay type: binding; conditions: co-purified FMN at dimer interface
[4] = target: flavone reductase (FLR) from Flavonifractor plautii ATCC 49531 (Flavonifractor plautii ATCC 49531); test: SEC-MALS; Superdex-200 10/300; 100 mM NaCl, 20 mM Tris-HCl pH 7.9, 3 mM FMN, 3 mM DTT; 100 uL of FLR at ~5 mg/mL injected; room temperature
[5] = substrate: O=c1cc(-c2ccc(O)cc2)oc2cc(O)cc(O)c12; test: purified protein; conditions: pH 7.0, 37 °C, 5 mM NADH, 0.5 mM FMN, 5 μM Fre, 5% DMSO, anaerobic
[6] = substrate: O=C1C[C@@H](c2ccc(O)cc2)Oc2cc(O)cc(O)c21; test: HPLC, steady-state kinetics, reverse reaction; assay type: biochemical, Flavonifractor plautii; conditions: pH 7.0, 37 °C, 0.5 mM FMN, 5% DMSO, reverse reaction (dehydrogenation to apigenin)
Text: HPLC, steady-state kinetics, reverse reaction on FLR (flavone reductase) | The determination of the Km and kcat values of FLR for naringenin

O=c1cc(-c2ccc(O)c(O)c2)oc2cc(O)cc(O)c12 [luteolin]
X-ray crystal structure, soaked SeMet crystal ([1]; 2.25 Å): solved the complex structures of FLR with various substrates, including apigenin, chrysin, and luteolin

O=c1cc(-c2ccc(O)cc2)oc2cc(O)cc(O)c12 [apigenin]
X-ray crystal structure, soaked SeMet crystal ([1]; 2.55 Å): solved the complex structures of FLR with various substrates, including apigenin, chrysin, and luteolin

O=c1c(-c2ccc(O)cc2)coc2cc(O)ccc12 [daidzein]
conversion by E. coli expressing the enzyme [2]: they could convert daidzein (a main isoflavone) to dihydrodaidzein

O=c1cc(-c2ccccc2)oc2cc(O)cc(O)c12 [chrysin]
X-ray crystal structure, soaked SeMet crystal ([1]; 2.65 Å): solved the complex structures of FLR with various substrates, including apigenin, chrysin, and luteolin

Cc1cc2nc3c(=O)[nH]c(=O)nc-3n(C[C@H](O)[C@H](O)[C@H](O)COP(=O)(O)O)c2cc1C [FMN]
X-ray crystal structure (Se-SAD) [3]: The cofactor molecule FMN binds at the dimer interface

flavone reductase (FLR) from Flavonifractor plautii ATCC 49531 (enzyme)
stoichiometry N [4]: 2

B1: FLR (flavone reductase) (Flavonifractor plautii 1_3_50AFAA) (protein)
chain: MKILGISGGMRNGSNDGMCIEALMGAKEMGAEVEFIQLQNLHIEHCTGCTACVQSVLGGRGGKCVLKDDFDWLLDKMLDADGIVFSTPIFEKGATGLFHTITDRFGPRMDRGNNIIGTKIAEETGGTAPDPRILKDKVISFMSVGGSDWVTRTQCDAGMLALTPMWKVIDNEVFPWALSILVEDERVARAHQIGRNIAEAAKNIEHAQYQGDAGVCPHCHSRNFHLQDGKAICCLCGLEGEIHNESGKYSFTFPAEQLEHAHDTLSGKFIHGNDIKENTGKKIANMQTEKYKARQAAYRAFITATVPEKG
notes: SeMet-labelled for crystals
Km [5]: 8.36 ± 1.34 µM
kcat [5]: 0.0165 ± 0.0009 s⁻¹
Km [6]: 12.27 ± 1.46 µM
kcat [6]: 0.0577 ± 0.0025 s⁻¹
